Assay results taken from patent US9976141B2, “Compositions and methods for inhibiting gene expression of Hif2alpha” (Arrowhead Madison Inc., priority 2015, dated 2018).

Test system: human (tumor) Hif2α (EPAS1) mRNA
Experiment: Hif2α knockdown in orthotopic RCC tumor bearing mice, single injection of RNAi trigger-delivery polymer conjugate, RT-qPCR (Table 7)
Format: in vivo
Details: single tail vein injection, relative to isotonic glucose
Summary of the method: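 Female athymic nude mice carried orthotopic A498-SEAP ccRCC kidney tumours, used 5–6 weeks after implantation. They received one tail-vein injection of RGD-targeted Hif2α RNAi trigger–polymer conjugate or isotonic glucose. Tumour Hif2α mRNA was measured by TaqMan RT-qPCR normalised to CycA (ΔΔCT) and expressed relative to glucose-treated mice.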

[1] = RNAi trigger 50 μg, polymer 064 125 μg
[2] = RNAi trigger 150 μg, polymer 100A 300 μg
[3] = RNAi trigger 80 μg, polymer 126 400 μg

| Substance | Relative Expression day 4 (Hif2α mRNA in kidney tumor) [1] | Relative Expression day 4 (Hif2α mRNA in kidney tumor) [3] | further results |
| --- | --- | --- | --- |
| AD02694 (antisense UUUCAUGAAAUCGUUACGUUG; sense ACGUAACGAUUUCAUGAAAT; Hif2alpha RNAi agent antisense strand; modified_base 2,4,6,8,10,14,16,18 /mod_base = “2′-deoxy-2′-fluoro corresponding nucleoside”; modified_base 1,3,5,7,9,11,12,13,15,17,19,20,21 /mod_base = “2′-O-methyl corresponding nucleoside”; modified_base 2,3,20,21 /mod_base = “5′-phosphorothioate corresponding nucleotide”; Hif2alpha RNAi agent sense strand; modified_base 3,7,9,13,17 /mod_base = “2′-deoxy-2′-fluoro corresponding nucleoside”; modified_base 1,2,4,5,6,8,10,11,12,14,15,16,18,19 /mod_base = “2′-O-methyl corresponding nucleoside”; modified_base 20 /mod_base = “3′-3′-linked nucleotide”; modi) | – | – | Relative Expression day 4 (Hif2α mRNA in kidney tumor) (RNAi trigger 75 μg, polymer 064 187.5 μg): 0.099 |
| AD03193 (antisense AGUAAAACAAUUGUGUACUUUAA; sense AAAGUACACAAUUGUUUUACT; Hif2alpha RNAi agent antisense strand; modified_base 2,4,6,8,14 /mod_base = “2′-deoxy-2′-fluoro corresponding nucleoside”; modified_base 1,3,5,7,9,10,11,12,13,15,16,17,18,19,20,21,22,23 /mod_base = “2′-O-methyl corresponding nucleoside”; modified_base 2,3,22,23 /mod_base = “5′-phosphorothioate corresponding nucleotide”; Hif2alpha RNAi agent sense strand; modified_base 9,10,11 /mod_base = “2′-deoxy-2′-fluoro corresponding nucleoside”; modified_base 1,2,3,4,5,6,7,8,12,13,14,15,16,17,18,19,20 /mod_base = “2′-O-methyl corresponding nucleoside”; modified_base 21 /mod_base = “3′-3′-linked nucleoti) | 0.275 | – | – |
| AD01411 (antisense TUUCAUGAAAUCGUUACGUCGGCUAU; sense UAUAUCGACGUAACGAUUUCAUGAAA; Hif2alpha RNAi agent antisense strand; modified_base 25 modified base = “2′-hydroxy corresponding nucleoside”; modified_base 2,4,6,8,10,12,14,16,18,20 /mod_base = “2′-deoxy-2′-fluoro corresponding nucleoside”; modified_base 3,5,7,11,13,15,17,19,21,22,23,24,26 /mod_base = “2′-O-methyl corresponding nucleoside”; modified_base 9 /mod_base = “2′-3′ seco corresponding nucleotide”; modified_base 2,24 /m; Hif2alpha RNAi agent sense strand; modified_base 2,4 modified base = “2′-hydroxy corresponding nucleoside”; modified_base 6,8,10,12,14,16,18,20,22,24,26 /mod_base = “2′-deoxy-2′-fluoro correspondi) | – | – | Relative Expression day 4 (Hif2α mRNA in kidney tumor) [2]: 0.36 |
| AD01032 (antisense TAAGUUAAGCUCCCAUACATT; sense UGUAUGGGAGCUUAACUUAT; Hif2alpha RNAi agent antisense strand; modified_base 2,4,8,10,12,14,16,18 /mod_base = “2′-deoxy-2′-fluoro corresponding nucleoside”; modified_base 3,5,7,9,11,13,15,17,19 /mod_base = “2′-O-methyl corresponding nucleoside”; modified_base 6 /mod_base = “2′-3′ seco corresponding nucleotide”; modified_base 21 /mod_base = “5′-phosphorothioate corresponding nucleotide”; Hif2alpha RNAi agent sense strand; modified_base 1,3,5,7,9,11,13,15,17,19 /mod_base = “2′-deoxy-2′-fluoro corresponding nucleoside”; modified_base 2,4,6,8,10,12,14,16,18 /mod_base = “2′-O-methyl corresponding nucleoside”; modified_b) | – | 1.00 | – |
| AD01424 (antisense TUUCAUGAAAUCGUUACGUCGGCUAU; sense UAUAUCGACGUAACGAUUUCAUGAAA; Hif2alpha RNAi agent antisense strand; modified_base 25 modified base = “2′-hydroxy corresponding nucleoside”; modified_base 2,4,6,8,10,12,14,16,18,20 /mod_base = “2′-deoxy-2′-fluoro corresponding nucleoside”; modified_base 3,5,7,11,13,15,17,19,21,22,23,24,26 /mod_base = “2′-O-methyl corresponding nucleoside”; modified_base 9 /mod_base = “2′-3′ seco corresponding nucleotide”; modified_base 2,3,23,; Hif2alpha RNAi agent sense strand; modified_base 2,4 modified base = “2′-hydroxy corresponding nucleoside”; modified_base 6,8,10,12,14,16,18,20,22,24 /mod_base = “2′-deoxy-2′-fluoro corresponding) | – | – | Relative Expression day 4 (Hif2α mRNA in kidney tumor) [2]: 0.54 |
| AD02857 (antisense UUUCAUGAAAUCGUUACGUUG; sense ACGUAACGAUUUCAUGAAAT; Hif2alpha RNAi agent antisense strand; modified_base 2,4,6,8,10,14 /mod_base = “2′-deoxy-2′-fluoro corresponding nucleoside”; modified_base 1,3,5,7,9,11,12,13,15,16,17,18,19,20,21 /mod_base = “2′-O-methyl corresponding nucleoside”; modified_base 2,3,20,21 /mod_base = “5′-phosphorothioate corresponding nucleotide”; Hif2alpha RNAi agent sense strand; modified_base 7,8,9 /mod_base = “2′-deoxy-2′-fluoro corresponding nucleoside”; modified_base 1,2,3,4,5,6,10,11,12,13,14,15,16,17,18,19 /mod_base = “2′-O-methyl corresponding nucleoside”; modified_base 20 /mod_base = “3′-3′-linked nucleotide”; modi) | 0.192 | – | – |
| AD01021 (antisense TGUAAAACAAUUGUGUACUTT; sense AGUACACAAUUGUUUUACAT; Hif2alpha RNAi agent antisense strand; modified_base 2,4,6,8,10,12,14,16,18 /mod_base = “2′-deoxy-2′-fluoro corresponding nucleoside”; modified_base 3,5,9,11,13,15,17,19 /mod_base = “2′-O-methyl corresponding nucleoside”; modified_base 7 /mod_base = “2′-3′ seco corresponding nucleotide”; modified_base 21 /mod_base = “5′-phosphorothioate corresponding nucleotide”; Hif2alpha RNAi agent sense strand; modified_base 1,3,5,7,9,11,13,15,17,19 /mod_base = “2′-deoxy-2′-fluoro corresponding nucleoside”; modified_base 2,4,6,8,10,12,14,16,18 /mod_base = “2′-O-methyl corresponding nucleoside”; modified_b) | – | 0.90 | – |
| AD01026 (antisense TAAAUCGUUACGUUGACAGTT; sense CUGUCAACGUAACGAUUUAT; Hif2alpha RNAi agent antisense strand; modified_base 2,4,8,10,12,14,16,18 /mod_base = “2′-deoxy-2′-fluoro corresponding nucleoside”; modified_base 3,5,7,9,11,13,15,17,19 /mod_base = “2′-O-methyl corresponding nucleoside”; modified_base 6 /mod_base = “2′-3′ seco corresponding nucleotide”; modified_base 21 /mod_base = “5′-phosphorothioate corresponding nucleotide”; Hif2alpha RNAi agent sense strand; modified_base 1,3,5,7,9,11,13,15,17,19 /mod_base = “2′-deoxy-2′-fluoro corresponding nucleoside”; modified_base 2,4,6,8,10,12,14,16,18 /mod_base = “2′-O-methyl corresponding nucleoside”; modified_b) | – | 0.97 | – |
| AD03188 (antisense AGUAAAACAAUUGUGUACUUU; sense AGUACACAAUUGUUUUACUT; Hif2alpha RNAi agent antisense strand; modified_base 2,4,6,8,10,14,16,18 /mod_base = “2′-deoxy-2′-fluoro corresponding nucleoside”; modified_base 1,3,5,7,9,11,12,13,15,17,19,20,21 /mod_base = “2′-O-methyl corresponding nucleoside”; modified_base 2,3,20,21 /mod_base = “5′-phosphorothioate corresponding nucleotide”; Hif2alpha RNAi agent sense strand; modified_base 3,5,7,8,9,11,13,17 /mod_base = “2′-deoxy-2′-fluoro corresponding nucleoside”; modified_base 1,2,4,6,10,12,14,15,16,18,19 /mod_base = “2′-O-methyl corresponding nucleoside”; modified_base 20 /mod_base = “3′-3′-linked nucleotide”; modi) | 0.308 | – | – |
